Counter-ions that a name gives are not always drawn.
Tested on: Pseudomonas aeruginosa PAM1001
Test: microbe, parasite or virus in culture
Format: cell-based
Details: for inhibition at 20 µg/mL / inhibition at 40 µg/mL / inhibition at 2.5 µg/mL / inhibition at 5 µg/mL / inhibition at 10 µg/mL: Pseudomonas aeruginosa, PAM1001, read-out: Inhibition (%) of growth of P. aeruginosa PAM1001; for Inhibition (%) of growth of P. aeruginosa PAM1001: Levofloxacin 0.25 μg/mL
Outline: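 P. aeruginosa PAM1001 grown in Mueller Hinton broth from 1×10^6 CFU/mL inoculum with levofloxacin 0.25 microg/mL plus varying EPI concentrations; growth followed by A650 over 18 h at 37° C. Result given as % growth inhibition versus levofloxacin-only culture without EPI.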

[1] = Concentration of Compound 2.5 μg/mL
[2] = Concentration of Compound 5 μg/mL
[3] = Concentration of Compound 10 μg/mL
[4] = Concentration of Compound 20 μg/mL
[5] = Concentration of Compound 40 μg/mL

Row | Compound | inhibition at 20 µg/mL [%] | inhibition at 40 µg/mL [%] | inhibition at 2.5 µg/mL [%] | inhibition at 5 µg/mL [%] | inhibition at 10 µg/mL [%] | Inhibition (%) of growth of P. aeruginosa PAM1001 [1] [%] | Inhibition (%) of growth of P. aeruginosa PAM1001 [2] [%] | Inhibition (%) of growth of P. aeruginosa PAM1001 [3] [%] | Inhibition (%) of growth of P. aeruginosa PAM1001 [4] [%] | Inhibition (%) of growth of P. aeruginosa PAM1001 [5] [%]
1 | N[C@H]1CN[C@H](C(=O)N2C[C@H](NC(=O)[C@H](O)CCc3ccccc3)C[C@H]2C(=O)Nc2cnc3ccccc3c2)C1 (mixture of isomers) [Compound D101, trans-4-Amino-L-Prolyl-trans-4-((R)-2-Hydroxy-4-Phenylbutyrylamino)-L-Proline 3-Quinolylamide Trihydrochloride] | 20 | 94 |  |  |  |  |  |  |  | 
2 | NCCNC(=O)[C@@H]1C[C@@H](Oc2cccc(-c3ccccc3)c2)CN1 [Compound D601, trans-4-(3-Biphenyloxy)-L-Proline 2-Aminoethylamide Dihydrochloride] | 86 | 100 | 20 | 18 | 16 |  |  |  |  | 
3 | NCC(=O)N[C@@H]1CN[C@@H](COc2cccc(-c3ccccc3)c2)C1 [Compound D504, (2R,4S)-4-Glycylamino-2-(3-Biphenyloxy)methyl-pyrrolidine Dihydrochloride] | 100 | 99 | 22 | 3 | 74 |  |  |  |  | 
4 | Cl.Cl.NCC(=O)N[C@@H]1CN[C@@H](C(=O)N2CCC(Oc3cc(Cl)cc(Cl)c3)CC2)C1 [Compound D415] |  |  |  |  |  | 13 | 99 | 100 | 100 | 100
5 | N[C@H]1CCN[C@H](C(=O)Nc2ccc(Oc3ccccc3)cc2)C1 [Compound D329, trans-4-Amino-L-Pipecolinoyl-(4-Phenoxyphenyl)-amide Dihydrochloride] | 16 | 97 | 20 | 20 | 17 |  |  |  |  | 
6 | NCC(=O)N[C@H]1CCN[C@H](C(=O)N2C[C@H](NC(=O)[C@H](O)CCc3ccccc3)C[C@H]2C(=O)Nc2cnc3ccccc3c2)C1 (mixture of isomers) [Compound D114, trans-4-Glycylamino-L-Pipecolinoyl-trans-4-((R)-2-Hydroxy-4-Phenylbutyrylamino)-L-Proline 3-Quinolylamide Trihydrochloride] | 100 | 100 | 20 | 22 | 90 |  |  |  |  | 
7 | NCC(=O)N[C@H]1CN[C@H](C(=O)N2CCC(Oc3ccc(OCc4ccccc4)cc3)CC2)C1 [Compound D413, 1-(trans-4-Glycylamino-L-Prolyl)4-(4-Benzyloxyphenoxy)piperidine Dihydrochloride] | 100 | 100 | 13 | 8 | 97 |  |  |  |  | 
8 | N[C@H]1CCN[C@H](C(=O)N2C[C@H](NC(=O)[C@H](O)CCc3ccccc3)C[C@H]2C(=O)Nc2cnc3ccccc3c2)C1 (mixture of isomers) [Compound D112, trans-4-Amino-L-Pipecolinoyl-trans-4-((R)-2-Hydroxy-4-Phenylbutyrylamino)-L-Proline 3-Quinolylamide Trihydrochloride] | 58 | 101 | 20 | 20 | 17 |  |  |  |  | 
9 | NC[C@H](O)C(=O)N[C@H]1CN[C@H](C(=O)Nc2ccc(Oc3ccccc3)cc2)C1 [Compound D321, trans-4-((S)-3-Amino-2-Hydroxypropionylamino)-L-Proline 4-Phenoxyphenylamide Dihydrochloride] | 100 | 100 | 15 | 14 | 84 |  |  |  |  | 
10 | NCC(O)[C@@H]1C[C@@H](Oc2cccc(-c3ccccc3)c2)CN1 (stereo partly drawn) [Compound D602, (2S,4R)-2-(2-Amino-1-hydroxyethyl)-4-(3-biphenyloxy)pyrrolidine Dihydrochloride] | 100 | 100 | 98 | 99 | 100 |  |  |  |  | 
11 | Cl.Cl.NCC(=O)N[C@H]1CN[C@H](C=Cc2ccc(-c3ccccc3)cc2)C1 [Compound D801, (2S,4R)-4-Glycylamino-2-((E and Z)-4-Phenyistyryl)-pyrrolidine Dihydrochloride] |  |  |  |  |  | 8 | 63 | 99 | 99 | 99
12 | NCC(=O)N[C@H]1CCN[C@H](C(=O)Nc2ccc(Oc3ccccc3)cc2)C1 [Compound D330, trans-4-Glycylamino-L-Pipecolinoyl 4-Phenoxy-phenylamide Dihydrochloride] | 100 | 100 | 19 | 18 | 12 |  |  |  |  | 
13 | trans-4-Glycylamino-D-proline 3-Biphenylamide Dihydrochloride [Compound D307] |  |  |  |  |  | 24 | 5 | 90 | 100 | 100
14 | Cc1ccc(NC(=O)[C@@H](CCc2ccccc2)NC(=O)[C@@H]2C[C@@H](NC(=O)CN)CN2)cc1C [Compound D204, trans-4-Glycylamino-L-Prolyl-D-Homophenylalanine 3,4-Dimethylphenylamide Dihydrochloride] | 100 | 100 | 18 | 16 | 3 |  |  |  |  | 
15 | Cc1ccc(Oc2ccc(NC(=O)[C@@H]3C[C@@H](NC(=O)CN)CN3)cc2)cc1 [Compound D302, trans-4-Glycylamino-L-Proline 4-(4′-Methylphenoxy)-phenylamide Dihydrochloride] | 100 | 100 | 22 | 17 | 97 |  |  |  |  | 
16 | Cl.Cl.NCC(=O)N[C@H]1CN[C@H](C(=O)N2CCN(c3ccc(Cl)cc3)CC2)C1 (relative stereo) [Compound D403, 1-(N-trans-4-Glycylamino-L-Prolyl)-4-(4-Chlorophenyl)piperazine Dihydrochloride] |  |  |  |  |  | 25 | 22 | 22 | 4 | 61
17 | NCC(=O)N[C@H]1CN[C@H](C(=O)Nc2ccc(Nc3ccccc3)cc2)C1 [Compound D304, trans-4-Glycylamino-L-Proline 4-Phenylamino-phenylamide Dihydrochloride] | -11 | 100 | 17 | 15 | 10 |  |  |  |  | 
18 | NCCC[C@H](N)C(=O)N1C[C@@H](NC(=O)CCCc2ccccc2)C[C@H]1C(=O)Nc1ccc2c(c1)CCC2 [Compound D122, L-Ornithyl-cis-4-(4-phenylbutanoyl)amino-L-proline 5-Indanylamide] | 100 | 99 | 16 | 99 | 100 |  |  |  |  | 
